Measurements from ChEMBL document CHEMBL4725219, “Identification and in silico prediction of metabolites of tebufenozide derivatives by major human cytochrome P450 isoforms” (Bioorg Med Chem, 2020).

Columns and labels:
[1] = Drug metabolism in recombinant Saccharomyces cerevisiae AH22 cells expressing human CYP3A4/CYP2C9 assessed as CYP-mediated hydroxylation at CH3-isopropyl group of B ring by measuring retention time of the metabolite at 100 uM incubated for 24 hrs by HPLC analysis; format: ADME
[2] = Drug metabolism in recombinant Saccharomyces cerevisiae AH22 cells expressing human CYP3A4/CYP2C9 assessed as CYP-mediated hydroxylation at methyl group of A-ring by measuring retention time of the metabolite at 100 uM incubated for 24 hrs by HPLC analysis; format: ADME
[3] = Drug metabolism in recombinant Saccharomyces cerevisiae AH22 cells expressing human CYP3A4/CYP2C9 assessed as CYP-mediated hydroxylation at CH-isopropyl group of B-ring by measuring retention time of the metabolite at 100 uM incubated for 24 hrs by HPLC analysis; format: ADME
Cytochrome P450 1A2 = target: T1, Cytochrome P450 1A2 (Homo sapiens, UniProt P05177); test: Drug metabolism in microsomes containing baculovirus expressing human CYP1A2 assessed as CYP1A2-mediated hydroxylation by LC/MS/MS analysis; format: ADME, Microsome
T1 sequence (P05177 whole entry): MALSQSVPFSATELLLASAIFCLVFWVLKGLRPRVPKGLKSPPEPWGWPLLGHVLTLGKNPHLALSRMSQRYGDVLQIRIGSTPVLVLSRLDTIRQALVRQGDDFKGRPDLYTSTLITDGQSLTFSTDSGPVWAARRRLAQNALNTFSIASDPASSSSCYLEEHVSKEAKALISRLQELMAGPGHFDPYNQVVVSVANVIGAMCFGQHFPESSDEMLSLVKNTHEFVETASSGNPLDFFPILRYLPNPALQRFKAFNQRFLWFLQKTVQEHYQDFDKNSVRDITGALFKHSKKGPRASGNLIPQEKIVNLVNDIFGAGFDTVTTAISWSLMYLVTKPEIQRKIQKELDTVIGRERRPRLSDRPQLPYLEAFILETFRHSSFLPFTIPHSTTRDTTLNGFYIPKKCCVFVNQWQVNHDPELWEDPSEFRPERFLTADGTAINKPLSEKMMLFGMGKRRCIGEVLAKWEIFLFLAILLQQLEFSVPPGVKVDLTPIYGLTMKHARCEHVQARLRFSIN

Cytochrome P450 2D6 = Cytochrome P450 2D6 (Homo sapiens, UniProt P10635); test: Drug metabolism in microsomes containing baculovirus expressing human CYP2D6 assessed as CYP2D6-mediated hydroxylation at methyl group of A-ring by LC/MS/MS analysis relative to control; format: ADME, Microsome
Cytochrome P450 3A4 [4] = target: T2, Cytochrome P450 3A4 (Homo sapiens, UniProt P08684); test: Drug metabolism in recombinant Saccharomyces cerevisiae AH22 cells expressing human CYP3A4 assessed as CYP3A4-mediated hydroxylation at methyl group of A-ring by measuring retention time of the metabolite at 39 uM incubated for 24 hrs by HPLC analysis; format: ADME; settings: recombinant enzyme
Cytochrome P450 2C9 = Cytochrome P450 2C9 (Homo sapiens, UniProt P11712); test: Drug metabolism in microsomes containing baculovirus expressing human CYP2C9 assessed as CYP2C9-mediated hydroxylation at methyl group of A-ring by LC/MS/MS analysis relative to control; format: ADME, Microsome
Cytochrome P450 3A4 [5] = target: T2, Cytochrome P450 3A4; test: Drug metabolism in recombinant Saccharomyces cerevisiae AH22 cells expressing human CYP3A4 assessed as CYP3A4-mediated hydroxylation at methyl group of B-ring by measuring retention time of the metabolite at 39 uM incubated for 24 hrs by HPLC analysis; format: ADME; settings: recombinant enzyme
Cytochrome P450 3A4 [6] = target: T2, Cytochrome P450 3A4; test: Drug metabolism in recombinant Saccharomyces cerevisiae AH22 cells expressing human CYP3A4 assessed as CYP3A4-mediated hydroxylation at t-butyl group by measuring retention time of the metabolite at 39 uM incubated for 24 hrs by HPLC analysis; format: ADME; settings: recombinant enzyme

T2 sequence (P08684 whole entry): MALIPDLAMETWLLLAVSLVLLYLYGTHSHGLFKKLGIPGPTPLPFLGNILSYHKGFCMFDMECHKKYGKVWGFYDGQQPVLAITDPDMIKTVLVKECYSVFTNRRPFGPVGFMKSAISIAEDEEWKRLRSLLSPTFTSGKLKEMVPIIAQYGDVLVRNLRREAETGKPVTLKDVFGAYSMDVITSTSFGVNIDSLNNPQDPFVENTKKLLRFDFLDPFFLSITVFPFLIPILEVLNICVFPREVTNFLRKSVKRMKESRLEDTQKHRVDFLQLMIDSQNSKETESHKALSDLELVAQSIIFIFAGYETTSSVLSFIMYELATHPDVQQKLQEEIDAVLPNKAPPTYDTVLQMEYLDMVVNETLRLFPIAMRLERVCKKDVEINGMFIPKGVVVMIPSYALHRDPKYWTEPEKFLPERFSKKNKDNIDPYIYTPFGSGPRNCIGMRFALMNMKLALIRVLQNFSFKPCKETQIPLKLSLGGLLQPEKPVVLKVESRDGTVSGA
Sequence of Cytochrome P450 2D6 (P10635 whole entry): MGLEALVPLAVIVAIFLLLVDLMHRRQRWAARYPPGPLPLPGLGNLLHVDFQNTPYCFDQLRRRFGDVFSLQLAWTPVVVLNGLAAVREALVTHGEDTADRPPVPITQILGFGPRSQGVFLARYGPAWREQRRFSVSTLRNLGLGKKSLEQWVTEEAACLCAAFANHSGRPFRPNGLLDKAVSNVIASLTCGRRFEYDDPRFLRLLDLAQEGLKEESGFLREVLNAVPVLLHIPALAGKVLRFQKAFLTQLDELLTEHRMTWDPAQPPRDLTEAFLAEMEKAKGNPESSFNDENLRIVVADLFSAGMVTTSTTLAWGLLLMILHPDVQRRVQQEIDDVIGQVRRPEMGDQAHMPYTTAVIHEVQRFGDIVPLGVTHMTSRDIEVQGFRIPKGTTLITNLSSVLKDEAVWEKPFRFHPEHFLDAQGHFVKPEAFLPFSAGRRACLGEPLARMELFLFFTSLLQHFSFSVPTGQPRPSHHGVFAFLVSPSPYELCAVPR
Sequence of Cytochrome P450 2C9 (P11712 whole entry): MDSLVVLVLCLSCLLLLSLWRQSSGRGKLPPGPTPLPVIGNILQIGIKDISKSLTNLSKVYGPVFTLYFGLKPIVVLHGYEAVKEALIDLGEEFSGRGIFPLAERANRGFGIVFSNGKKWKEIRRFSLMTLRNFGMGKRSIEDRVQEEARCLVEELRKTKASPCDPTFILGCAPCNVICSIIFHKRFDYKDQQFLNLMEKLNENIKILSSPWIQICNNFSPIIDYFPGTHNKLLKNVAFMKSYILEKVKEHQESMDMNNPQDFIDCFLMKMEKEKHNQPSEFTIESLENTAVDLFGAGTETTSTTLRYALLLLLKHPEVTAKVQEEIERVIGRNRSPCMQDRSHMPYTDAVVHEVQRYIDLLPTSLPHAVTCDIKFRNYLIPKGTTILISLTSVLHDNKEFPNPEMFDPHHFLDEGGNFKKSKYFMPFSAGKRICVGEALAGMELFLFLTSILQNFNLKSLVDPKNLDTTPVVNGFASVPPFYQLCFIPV

| Retention_time [1] | Retention_time [2] | Retention_time [3] | Drug metabolism (Cytochrome P450 1A2) | Drug metabolism (Cytochrome P450 2D6) | Retention_time (Cytochrome P450 3A4 [4]) | Drug metabolism (Cytochrome P450 2C9) | Retention_time (Cytochrome P450 3A4 [5]) | Retention_time (Cytochrome P450 3A4 [6]) | Structure (SMILES) |
| --- | --- | --- | --- | --- | --- | --- | --- | --- | --- |
| 12 min | 17.7 min | 13.9 min | Metabolite_Notdetected |  |  |  |  |  | Cc1cc(C)cc(C(=O)N(NC(=O)c2ccc(C(C)C)cc2)C(C)(C)C)c1 |
|  |  |  | Metabolite_Notdetected |  |  |  |  |  | Cc1cc(C)cc(C(=O)N(NC(=O)c2ccccc2C)C(C)(C)C)c1 |
|  |  |  | Metabolite_Notdetected | Metabolite_Detected | 17.4 min | Metabolite_Detected | 16.1 min | 16.1 min | Cc1cccc(C(=O)NN(C(=O)c2cc(C)cc(C)c2)C(C)(C)C)c1 |
